Tested on: μpatterned hiPSC-CMs
Test: traction force microscopy of moving microbeads under beating μpatterned hiPSC-CMs
Assay type: cell-based, human
Conditions: for absolute values of dmax, VC, VR, ΣFmax, PC and PR: six single cells (FIG. 5)
Method: We cultured single hiPSC-CMs on Matrigel micropatterns, which were transferred from printed glass coverslips onto the surface of polyacrylamide hydrogels with a stiffness of 10 kPa as previously described. (Ribeiro 2015a) In summary, Matrigel was diluted 1:10 in L15 medium (Thermo Fisher) and added to the top of elastomeric microstamps composed of polydimethylsiloxane 182 (Dow Corning) to be incubated at 3-4° C. overnight. Microstamps consisted of 2000 μm^2 rectangular features with an aspect ratio of 7:1 (length:width). We gently aspirated Matrigel after the overnight incubation, washed the stamps twice in L15 medium, aspirated L15 medium from the surface and dried it with a low stream of N2 gas. We then used microstamps to micropattern the Matrigel rectangular features on clean glass coverslips by microcontact printing. Matrigel on micropatterns was transferred to the surface of the polyacrylamide substrates during the gelation process by placing the patterned coverslip in contact with the top of the acrylamide prepolymer solution right before gelation. The aqueous prepolymer solution to be gelled was composed of acrylamide (Sigma-Aldrich)(10% w/v), bisacrylamide (Sigma-Aldrich) (0.1% w/v), ammonium persulfate (Sigma-Aldrich) (0.01% w/v) and N,N,N′,N′-tetramethylethylenediamine (Sigma-Aldrich) (0.1% v/v), HEPES (Thermo Fisher) (35 mM) and Milli-Q water. To calculate the forces generated by cells attached to polyacrylamide surfaces with traction force microscopy, green fluorescent microbeads with a diameter of 0.2 μm (Thermo Fisher) were also dispersed in the gel solution to yield a final concentration of 6.25×10^9 microbeads/mL. We gelled acrylamide on top of another coverslip functionalized with 3-(trimethoxysilyl)propyl methacrylate (Sigma-Aldrich), which binds polyacrylamide. […] Once polymerized, polyacrylamide substrates were incubated in PBS for at least 2 hours and the top coverslips were carefully removed with a razor blade. We seeded hiPSC-CMs on these polyacrylamide hydrogel substrates after washing them 3 times with PBS.
We passaged hiPSC-CMs onto micropatterned polyacrylamide devices at a density of 1000 cells/cm^2. For this purpose, cultures of thawed cells were washed twice with PBS and incubated in 1 mL of Accutase for 8-10 min. After observing cell detachment from the bottom of the wells, we quenched Accutase with Dulbecco's modified Eagle's medium (Thermo Fisher) containing 12% fetal bovine serum and counted the concentration of cells in medium with a hemocytometer. Then, we centrifuged cells at 83 rcf for 3 min at room temperature and aspirated the supernatant to resuspend the pelleted cells in the required volume of medium (RPMI-1640 cell-culture medium with 5 μM ROCK inhibitor) for adding 150 μL of cell solution to the surface of hydrogel devices at a concentration of 1000 cells/cm^2. After 1.5 h of incubation, we added 2.5 mL of medium to the well containing hydrogel devices and added fresh medium without ROCK inhibitor after 2 days. Single beating cells on Matrigel patterns were analyzed between 5-10 days after seeding.
We imaged the movement of beating hiPSC-CMs and the displacement of fluorescent microbeads embedded in polyacrylamide substrates with a Zeiss Axiovert 200M inverted microscope equipped with a Zeiss Axiocam MRm CCD camera. This microscope also contained an environmental chamber (PeCon) to set temperature at 37° C. Unless otherwise noted, we acquired microscopy videos while electrically pacing hiPSC-CMs with 10 ms-wide bipolar pulses of electric-field stimulation at 10-15 V with a frequency of 1 Hz (Myopacer, lonOptix).
To induce contractile changes in hiPSC-CMs, we added drugs known to affect CM contractile machinery to the culture medium. We analyzed the mechanical output of cells after adding drugs. […]

CC(C)NCC(O)c1ccc(O)c(O)c1 (stereo not drawn) [isoproterenol]
t̂ (time between peak velocity of contraction and of relaxation) (0.1 μM and 1 μM isoproterenol, six cells, no significant difference between the two concentrations (FIG. 5G)): decreased
br (beat rate) (0.1 μM and 1 μM isoproterenol, six cells, no significant difference between the two concentrations (FIG. 5H)): increased
br (beat rate) (0.1 μM isoproterenol, single cell (FIG. 4D)): increased
absolute values of dmax, VC, VR, ΣFmax, PC and PR (0.1 μM isoproterenol): consistently increased
br (beat rate) (1 μM isoproterenol, single cell (FIG. 4D)): clear increase
ΣFmax, PC and PR (1 μM isoproterenol, single cell (FIG. 4D,E)): substantial decrease
absolute values of dmax, VC, VR, ΣFmax, PC and PR (1 μM isoproterenol): decreased
PR (peak power of relaxation) (ISO 0.1 (μM per FIG. 4), single cell, no ISO: 0.28): 0.36 picoW
ΣFmax (peak force) (ISO 0.1 (μM per FIG. 4), single cell, no ISO: 0.53): 0.58 μN
PC (peak power of contraction) (ISO 0.1 (μM per FIG. 4), single cell, no ISO: 0.7): 0.86 picoW
VR (peak velocity of relaxation) (ISO 0.1 (μM per FIG. 4), single cell, no ISO: 1.05): 0.85 μm/s
VC (peak velocity of contraction) (ISO 0.1 (μM per FIG. 4), single cell, no ISO: 1.68): 1.92 μm/s
PR (peak power of relaxation) (ISO 1 (μM per FIG. 4), single cell, no ISO: 0.28): 0.06 picoW
ΣFmax (peak force) (ISO 1 (μM per FIG. 4), single cell, no ISO: 0.53): 0.15 μN
PC (peak power of contraction) (ISO 1 (μM per FIG. 4), single cell, no ISO: 0.7): 0.1 picoW
VR (peak velocity of relaxation) (ISO 1 (μM per FIG. 4), single cell, no ISO: 1.05): 0.93 μm/s
VC (peak velocity of contraction) (ISO 1 (μM per FIG. 4), single cell, no ISO: 1.68): 0.43 μm/s
inotropic and chronotropic response (extracellular isoproterenol 0.1 μM (FIGS. 4 and 5)): positive inotropic and positive chronotropic responses
inotropic and chronotropic response (isoproterenol increased to 1 μM (FIGS. 4 and 5)): negative inotropic effect, but a stronger chronotropic response

COC(=O)N1CCN(Cc2cccc(NC(=O)Nc3ccc(C)nc3)c2F)CC1 [omecamtiv mecarbil]
mechanical output (inotropy) (0.1 μM and 10 nM omecamtiv mecarbil, videos within 5 minutes after adding, 6 cells (FIG. 10)): decreased mechanical output (negative inotropy)
ΣFmax and br, acute (0.1 μM omecamtiv mecarbil, single cell (FIG. 6D)): slight acute increase
absolute values of PC and PR right after adding (0.1 μM omecamtiv mecarbil, single cell, even decreased in some contractile events (FIG. 6E)): did not vary
PR (peak power of relaxation) (OM 0.1 μM (FIG. 6), row 'acute', single cell, no OM: 0.6): 0.02 picoW
ΣFmax (peak force) (OM 0.1 μM (FIG. 6), row 'acute', single cell, no OM: 0.7): 0.14 μN
PC (peak power of contraction) (OM 0.1 μM (FIG. 6), row 'acute', single cell, no OM: 0.75): 0.04 picoW
VR (peak velocity of relaxation) (OM 0.1 μM (FIG. 6), row 'acute', single cell, no OM: 1.18): 0.18 μm/s
VC (peak velocity of contraction) (OM 0.1 μM (FIG. 6), row 'acute', single cell, no OM: 1.35): 0.29 μm/s
PR (peak power of relaxation) (OM 0.1 μM (FIG. 6), row 'chronic', single cell, no OM: 0.6): 0.59 picoW
ΣFmax (peak force) (OM 0.1 μM (FIG. 6), row 'chronic', single cell, no OM: 0.7): 0.72 μN
PC (peak power of contraction) (OM 0.1 μM (FIG. 6), row 'chronic', single cell, no OM: 0.75): 0.67 picoW
VR (peak velocity of relaxation) (OM 0.1 μM (FIG. 6), row 'chronic', single cell, no OM: 1.18): 1.1 μm/s
VC (peak velocity of contraction) (OM 0.1 μM (FIG. 6), row 'chronic', single cell, no OM: 1.35): 1.22 μm/s
time of contractions (higher concentrations of omecamtiv mecarbil (FIG. 10D)): increase
rate of beating (lower concentrations of omecamtiv mecarbil (FIG. 10E)): increased
variations of t̂ and br between 0.1 μM and 10 nM (omecamtiv mecarbil, within 5 minutes after adding (FIG. 10D,E)): statistically different
instantaneous acute inotropic effect (within 10 seconds of adding 0.1 μM omecamtiv mecarbil, single cell (FIG. 10J)): positive inotropy

Source: US20180106782A1, “HIGH THROUGHPUT CARDIOTOXICITY SCREENING PLATFORM” (The Board of Trustees of the Leland Stanford Junior …, priority 2016, published 2018)
